Source: the supplement of paper PMC10307832

How the values were obtained:
Assay in all cases: relative viability (nuclei count vs DMSO), 5 days (fraction); higher = more cells survive
[1] = compound: C[C@]1(O)C[C@@H](c2nc(-c3ccc4ccc(-c5ccccc5)nc4c3)c3c(N)nccn32)C1 [Linsitinib] + CC(=O)Nc1cccc(-n2c(=O)n(C3CC3)c(=O)c3c(Nc4ccc(I)cc4F)n(C)c(=O)c(C)c32)c1 [Trametinib] (partner 0.02 µM)
Procedure, shortened: (§1)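 Lung cancer cell lines were pin-tool dosed in 1536-well plates on the day after seeding, with either a lone drug or a fixed anchor-drug dose plus five library-drug doses (not always all listed) in √10 steps. Nuclei were counted on 4× images after 5 days. Relative viability is the ratio of treated-well to vehicle-well nuclei counts, with each value a median of duplicate plates.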

[2] = compound: Cc1ccc(C(=O)N(CCCN)[C@@H](c2nc3cc(Cl)ccc3c(=O)n2Cc2ccccc2)C(C)C)cc1 [Ispinesib] + COc1cc2c(Oc3ccc(NC(=O)C4(C(=O)Nc5ccc(F)cc5)CC4)cc3F)ccnc2cc1OCCCN1CCOCC1 [Foretinib] (partner 0.25 µM)
Procedure, shortened: as §1

[3] = compound: C[C@]1(O)C[C@@H](c2nc(-c3ccc4ccc(-c5ccccc5)nc4c3)c3c(N)nccn32)C1 [Linsitinib] + O=C(c1cc(Cc2n[nH]c(=O)c3ccccc23)ccc1F)N1CCN(C(=O)C2CC2)CC1 [Olaparib] (partner 8 µM)
Procedure, shortened: as §1

[4] = compound: C[C@]1(O)C[C@@H](c2nc(-c3ccc4ccc(-c5ccccc5)nc4c3)c3c(N)nccn32)C1 [Linsitinib] + C[C@@H](Oc1cc(-c2cnn(C3CCNCC3)c2)cnc1N)c1c(Cl)ccc(F)c1Cl [Crizotinib] (partner 1 µM)
Procedure, shortened: as §1

Cell Line | relative viability ([1]; first compound 0.01 µM) | relative viability ([1]; first compound 0.03162 µM) | relative viability ([1]; first compound 0.1 µM) | relative viability ([1]; first compound 0.3162 µM) | relative viability ([1]; first compound 1 µM) | relative viability ([2]; first compound 0.001 µM) | relative viability ([2]; first compound 0.003162 µM) | relative viability ([2]; first compound 0.01 µM) | relative viability ([2]; first compound 0.03162 µM) | relative viability ([2]; first compound 0.1 µM) | relative viability ([3]; first compound 0.01 µM) | relative viability ([3]; first compound 0.03162 µM) | relative viability ([3]; first compound 0.1 µM) | relative viability ([3]; first compound 0.3162 µM) | relative viability ([3]; first compound 1 µM) | relative viability ([4]; first compound 0.01 µM) | relative viability ([4]; first compound 0.03162 µM) | relative viability ([4]; first compound 0.1 µM) | relative viability ([4]; first compound 0.3162 µM) | relative viability ([4]; first compound 1 µM)
NCI-H1355 | 0.424 | 0.353 | 0.352 | 0.323 | 0.246 | 0.991 | 1.01 | 1.24 | 0.95 | 0.444 | 0.741 | 0.742 | 0.628 | 0.483 | 0.353 | 0.974 | 0.997 | 0.888 | 0.79 | 0.664
NCI-H1437 | 0.518 | 0.518 | 0.519 | 0.34 | 0.352 | 1.3 | 1.39 | 1.39 | 1.27 | 0.748 | 0.636 | 0.632 | 0.667 | 0.636 | 0.584 | 0.897 | 0.75 | 0.993 | 0.853 | 0.972
NCI-H1650 | 0.592 | 0.524 | 0.537 | 0.464 | 0.349 | 1.27 | 1.44 | 1.12 | 0.305 | 0.273 | 0.871 | 0.954 | 0.883 | 0.735 | 0.523 | 1.03 | 1.08 | 0.963 | 0.915 | 0.799
NCI-H1651 | 0.827 | 0.861 | 0.884 | 0.777 | 0.824 | 0.973 | 0.768 | 1.01 | 0.561 | 0.147 | 0.18 | 0.169 | 0.191 | 0.171 | 0.178 | 0.874 | 0.93 | 0.803 | 0.735 | 0.862
NCI-H1666 | 0.8 | 0.907 | 0.904 | 0.644 | 0.594 | 1.03 | 0.989 | 0.903 | 0.918 | 0.539 | 0.743 | 1.02 | 0.76 | 0.667 | 0.75 | 0.949 | 1.13 | 0.907 | 0.594 | 0.552
NCI-H1734 | 0.642 | 0.685 | 0.61 | 0.468 | 0.605 | 0.809 | 0.859 | 1.08 | 0.827 | 0.343 | 0.592 | 0.625 | 0.593 | 0.57 | 0.535 | 0.592 | 0.723 | 0.719 | 0.694 | 0.462
NCI-H1755 | 0.731 | 0.783 | 0.76 | 0.715 | 0.721 | 0.909 | 0.987 | 1.01 | 0.874 | 0.737 | 0.893 | 0.887 | 0.9 | 0.699 | 0.753 | 0.833 | 0.85 | 0.901 | 0.825 | 0.81
NCI-H1915 | 0.292 | 0.332 | 0.292 | 0.308 | 0.268 | 1.15 | 1.16 | 1.33 | 1.03 | 0.425 | 0.238 | 0.221 | 0.243 | 0.225 | 0.237 | 0.944 | 0.918 | 0.936 | 0.796 | 0.754
NCI-H1944 | 0.395 | 0.465 | 0.381 | 0.356 | 0.346 | 0.797 | 0.908 | 0.9 | 0.627 | 0.677 | 0.437 | 0.521 | 0.4 | 0.333 | 0.382 | 1.05 | 1.21 | 1.17 | 0.926 | 0.892
NCI-H1975 | 0.396 | 0.336 | 0.331 | 0.308 | 0.272 | 0.996 | 0.934 | 1.05 | 0.632 | 0.144 | 0.775 | 0.678 | 0.737 | 0.645 | 0.584 | 0.949 | 0.993 | 0.918 | 0.899 | 0.727
NCI-H1993 | 0.46 | 0.494 | 0.398 | 0.476 | 0.504 | 0.694 | 0.786 | 0.802 | 0.756 | 0.633 | 1.09 | 0.692 | 0.879 | 0.698 | 0.982 | 0.867 | 0.852 | 0.866 | 0.969 | 0.636
NCI-H2009 | 0.275 | 0.266 | 0.256 | 0.307 | 0.242 | 1.28 | 1.33 | 1.32 | 1.09 | 0.431 | 0.652 | 0.672 | 0.744 | 0.533 | 0.695 | 0.988 | 1.04 | 1.06 | 0.975 | 1.04
NCI-H2023 | 0.487 | 0.6 | 0.479 | 0.206 | 0.293 | 0.966 | 0.755 | 0.807 | 0.457 | 0.168 | 0.468 | 0.39 | 0.617 | 0.378 | 0.453 | 0.57 | 0.474 | 0.753 | 0.374 | 0.359
NCI-H2085 | 0.557 | 0.644 | 0.503 | 0.449 | 0.514 | 0.838 | 1.06 | 1.05 | 0.848 | 0.371 | 0.743 | 0.795 | 0.901 | 0.713 | 0.805 | 0.956 | 0.939 | 0.999 | 0.68 | 0.763
NCI-H2087 | 0.197 | 0.204 | 0.183 | 0.15 | 0.191 | 1.17 | 1.14 | 1.45 | 0.901 | 0.209 | 0.572 | 0.639 | 0.609 | 0.51 | 0.47 | 0.763 | 1.01 | 0.836 | 0.842 | 0.729
NCI-H2126 | 0.568 | 0.552 | 0.533 | 0.509 | 0.473 | 1.27 | 1.35 | 1.39 | 1.14 | 1.03 | 0.962 | 0.957 | 0.934 | 0.779 | 0.862 | 0.972 | 1.06 | 0.988 | 0.841 | 0.903
NCI-H2170 | 0.948 | 0.906 | 0.849 |  | 0.89 | 0.997 | 1.03 | 0.96 | 0.806 | 0.359 | 0.533 | 0.519 | 0.598 |  | 0.506 | 1.12 | 1.02 | 1.2 | 0.89 | 1.11
NCI-H2228 | 0.569 | 0.595 | 0.378 | 0.347 | 0.363 | 0.909 | 0.957 | 1.24 | 1 | 0.322 | 0.763 | 0.601 | 0.735 | 0.379 | 0.477 | 0.411 | 0.419 | 0.399 | 0.298 | 0.398
NCI-H2347 | 0.277 | 0.274 | 0.303 | 0.287 | 0.418 |  | 1.12 | 1.16 | 0.669 | 0.904 | 0.584 | 0.687 | 0.598 | 0.608 | 0.596 | 0.705 | 0.84 | 0.715 | 0.589 | 0.669
NCI-H2405 | 0.66 | 0.6 | 0.607 | 0.708 | 0.401 | 1.04 | 1.06 | 1.02 | 1.07 | 0.978 | 0.881 | 0.879 | 0.886 | 0.705 | 0.699 | 0.878 | 0.772 | 0.794 | 0.67 | 0.769
NCI-H3122 | 0.259 | 0.213 | 0.253 |  | 0.232 | 0.977 | 1.01 | 1.08 | 1.07 | 0.207 | 0.557 | 0.541 | 0.547 |  | 0.503 | 0.261 | 0.281 | 0.282 | 0.323 | 0.323
PC-3 [JPC-3] | 0.691 | 0.766 | 0.668 | 0.591 | 0.545 | 1.09 | 1.1 | 0.594 | 1.07 | 0.751 | 1.16 | 1.1 | 1.2 | 1.04 | 1.02 | 1.05 | 0.967 | 0.974 | 0.879 | 0.84
PC-14 | 0.684 | 0.681 | 0.618 | 0.699 | 0.575 | 1.02 | 1.09 | 1.23 | 0.917 | 0.186 | 0.26 | 0.177 | 0.303 | 0.233 | 0.263 | 0.837 | 0.914 | 0.916 | 0.869 | 0.794
RERF-LC-KJ | 0.903 | 0.829 | 0.87 | 0.731 | 0.771 | 0.875 | 0.9 | 0.976 | 0.91 | 0.257 | 0.933 | 0.884 | 0.841 | 0.847 | 0.538 | 0.803 | 0.816 | 0.849 | 0.731 | 0.739
SK-LU-1 | 0.551 | 0.349 | 0.538 | 0.471 | 0.534 | 1.01 | 0.806 | 0.942 | 0.821 | 0.286 | 0.428 | 0.419 | 0.552 | 0.41 | 0.468 | 0.805 | 0.752 | 0.859 |  | 0.993
SK-MES-1 | 0.516 | 0.484 | 0.556 | 0.503 | 0.521 | 1.01 | 1.02 | 0.993 | 0.928 | 0.256 | 0.702 | 0.784 | 0.633 | 0.584 | 0.557 | 0.955 | 1.06 | 1.01 | 0.826 | 0.931
SW 1573 | 0.671 | 0.576 | 0.646 | 0.385 | 0.412 | 0.978 | 0.893 | 0.907 | 1.1 | 0.32 | 0.497 | 0.563 | 0.432 | 0.329 | 0.348 | 0.801 | 0.921 | 0.796 | 0.817 | 0.577
